A short description of data set [1]: Inhibition of polyamine transport system in human L3.6pI cells assessed as reduction in [3H] spermidine uptake by Lineweaver-Burk double reciprocal plot analysis. The class given is cell-based. Conditions: l3.6pl.
Data set [2] deals with L3.6pl. Description: Inhibition of [3H]spermine uptake in human L3.6pI cells at 3 to 10 uM measured after 15 mins by scintillation counter method. The class given is functional, cell-based. Conditions: dose 3-10 µM.
The nature of data set [3]: Inhibition of polyamine transport system in human L3.6pI cells assessed as reduction in [3H] putrescine uptake by Lineweaver-Burk double reciprocal plot analysis. The class given is cell-based. The note with it: l3.6pl.
Data set [4] deals with L3.6pl. Kind of data set: Inhibition of [3H]spermidine uptake in human L3.6pI cells at 3 to 10 uM measured after 15 mins by scintillation counter method. Conditions: dose 3-10 µM. The class given is functional, cell-based.
The nature of data set [5]: Inhibition of polyamine transport system in human L3.6pI cells assessed as reduction in [3H] spermine uptake by Lineweaver-Burk double reciprocal plot analysis. Conditions: l3.6pl. The class given is cell-based.
The subject of data set [6] is L3.6pl. Kind of data set: Cytotoxicity against human L3.6pl cells assessed as reduction in cell growth measured after 72 hrs by CellTiter96 one aqueous solution assay. The class given is cell-based. Conditions: for IC50: Homo sapiens, L3.6pl; for MTC: human, l3.6pl, time 72 hrs.
The test system of data set [7] is L3.6pl. Description: Inhibition of spermidine uptake in human L3.6pI cells assessed as effect on cell growth measured after 72 hrs in presence of DFMO by CellTiter96 aqueous one solution assay. The class given is functional, cell-based.
Another data set concerns L1210. Kind of data set: (§1) Cytotoxicity against murine L1210 cells assessed as reduction in cell growth measured after 72 hrs by CellTiter96 one aqueous solution assay. The note with it: Mus musculus, L1210, 72 h. Type of data set: cell-based, Mus musculus.
A short description of data set [8]: as §1. The class given is cell-based, Mus musculus. Conditions: mouse, L1210 cells; time 72 hrs; read-out: MTC.
Data set [9] in a line: Inhibition of polyamine transport system in murine L1210 cells assessed as reduction in [3H] spermidine uptake by Lineweaver-Burk double reciprocal plot analysis. The class given is cell-based, Mus musculus.
A short description of data set [10]: Decrease in intracellular polyamine level in human L3.6pI cells assessed as total polyamine level at 30 uM measured after 24 hrs in presence of DFMO and Spd by HPLC analysis (reference value: 23.5 nmol/mg). The class given is functional, L3.6pl.
Data set [11] can be described thus: Decrease in intracellular polyamine level in human L3.6pI cells assessed as total polyamine level at 30 uM measured after 24 hrs in presence of DFMO by HPLC analysis (reference value: 20.7 nmol/mg). The class given is functional, L3.6pl.
The nature of data set [12]: Decrease in intracellular polyamine level in human L3.6pI cells assessed as total polyamine level at 30 uM measured after 24 hrs by HPLC analysis (reference value: 35.9 nmol/mg). Type of data set: functional, L3.6pl.
Data set [13] is described as follows: Decrease in intracellular polyamine level in human L3.6pI cells assessed as Spd/Spm molar ratio at 30 uM measured after 24 hrs in presence of DFMO and Spd by HPLC analysis (reference value: 0.4). The class given is functional, L3.6pl.
Data set [14] is described as follows: Decrease in intracellular polyamine level in human L3.6pI cells assessed as Spd/Spm molar ratio at 30 uM measured after 24 hrs in presence of DFMO by HPLC analysis (reference value: 0.2). Type of data set: functional, L3.6pl.
The test system of data set [15] is L3.6pl. Description: Inhibition of [3H]putresine uptake in human L3.6pI cells at up to 30 uM measured after 15 mins by scintillation counter method. The class given is functional, cell-based. The note with it: dose microM <=30, time 15.0 min.
Data set [16] can be described thus: Decrease in intracellular polyamine level in human L3.6pI cells assessed as Spd/Spm molar ratio at 30 uM measured after 24 hrs by HPLC analysis (reference value: 1.9). The class given is functional, L3.6pl.
The subject of data set [17] is L3.6pl. Kind of data set: Effect on human L3.6pI cells assessed as rescue of Ant44-induced toxicity at 30 uM measured after 24 hrs. The class given is functional.

What is called Ki is a measure of affinity in units of concentration, obtained from inhibition or displacement. One may read the IC50 as the concentration that inhibits the measured activity by half.

SMILES strings stand for the structures. Calls of active or inactive are those of the source. No cut-off for these calls is given here.

In the case of `CNCCCCNCCCCNCc1cc(CNCCCCNCCCCNC)cc(CNCCCCNCCCCNC)c1`, the Ki in data set [1] was 2.6 µM; in [3], 17.4 µM; in [5], 0.9 µM. Further, the inhibition entry in the data set on L3.6pl [2] and in the data set with L3.6pl [4] was “Active” throughout. Also, the IC50 with L3.6pl [6] amounted to 50 µM. For the same compound, the MTC with L3.6pl [6] was found to be 3 µM.

As for `Cl.Cl.Cl.Cl.Cl.NCCCCNCCCCN1CCCNCCCNCCC1`, in the data set with L3.6pl [7], the outcome was Active. In addition, the Ki was found to be 3.7 µM in data set [1] and 7.1 µM in data set [9]. The IC50 was more than 100 µM in the data set on L1210 and 368 µM in the data set on L3.6pl [6]. Also, the MCC at 72 h in data set [8] is 1000 nM. In the data set on L3.6pl [6], the MTC turned out to be 100 µM.

For `C1CNCCNCCN1`, in the data set on L3.6pl [6], the IC50 was 980 µM and the MTC is 250 µM.

Regarding `Cl.Cl.Cl.Cl.Cl.NCCCCNCCCCN1CCNCCNCC1`, the outcome in the data set with L3.6pl [7] and in the data set on L3.6pl [17] was Active. Further, the Activity in data set [10] came out at 20.8 nmol/mg; in [11], 17 nmol/mg; in data set [12], 36.4 nmol/mg. Besides, the Ki in [1] worked out at 3.3 µM; in data set [9], 1.9 µM; in data set [3], 11.6 µM; in data set [5] it was 1.3 µM. Further, the IC50 in the data set on L1210 was more than 100 µM; with L3.6pl [6], 1170 µM. The MCC at 72 h in data set [8] was more than 100000 nM. The inhibition result in the data set on L3.6pl [2] and in the data set on L3.6pl [4] was “Active” in each case. Besides, the results for the Ratio in [13], in data set [14] and in data set [16] were 0.2, 0.1 and 1.6, respectively. In the data set on L3.6pl [6], the MTC worked out at 500 µM. The inhibition entry in the data set on L3.6pl [15] is “inactive”.

With `C1CNCCCNCCCNC1`, in the data set on L3.6pl [6], the IC50 came to 129 µM and the MTC was found to be 50 µM.

The values above are taken from ChEMBL document CHEMBL5029201, “Development of Polyamine Lassos as Polyamine Transport Inhibitors” (ACS Med Chem Lett, 2022).
